Assay results taken from PubChem BioAssay (NCI).
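Where inhibition never reached the appropriate level, the endpoint shown equals the highest concentration tested. Otherwise, values were interpolated linearly from a five-concentration, 48-hour dose response in 96-well plates. GI50: concentration for 50% inhibition of growth. TGI marks complete inhibition of growth.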

Experiments:
Test in all cases: NCI anticancer screen, dose series, 48 h
HOP-62 NSCLC = test system: HOP-62 NSCLC
IGROV1 ovarian = test system: IGROV1 ovarian
UACC-62 melanoma = test system: UACC-62 melanoma
KM12 colon = test system: KM12 colon
DU-145 prostate = test system: DU-145 prostate
HCT-15 colon = test system: HCT-15 colon
MOLT-4 leukemia = test system: MOLT-4 leukemia
MDA-MB-435 = test system: MDA-MB-435
NCI-H226 lung = test system: NCI-H226 lung
SF-539 CNS = test system: SF-539 CNS
SF-268 CNS = test system: SF-268 CNS
OVCAR-5 ovarian = test system: OVCAR-5 ovarian
SW-620 colon = test system: SW-620 colon
OVCAR-8 ovarian = test system: OVCAR-8 ovarian
BT-549 breast = test system: BT-549 breast
HCT-116 colon = test system: HCT-116 colon
HOP-92 NSCLC = test system: HOP-92 NSCLC
SN12C renal = test system: SN12C renal
OVCAR-3 ovarian = test system: OVCAR-3 ovarian
SNB-19 CNS = test system: SNB-19 CNS
NCI-H522 lung = test system: NCI-H522 lung
LOX IMVI melanoma = test system: LOX IMVI melanoma
NCI/ADR-RES ovarian = test system: NCI/ADR-RES ovarian
MDA-MB-231 breast = test system: MDA-MB-231 breast
NCI-H23 lung = test system: NCI-H23 lung
MALME-3M melanoma = test system: MALME-3M melanoma
PC-3 prostate = test system: PC-3 prostate
ACHN renal = test system: ACHN renal
U251 CNS = test system: U251 CNS
CAKI-1 renal = test system: CAKI-1 renal
HCC-2998 colon = test system: HCC-2998 colon
A498 renal = test system: A498 renal
K-562 leukemia = test system: K-562 leukemia
SK-OV-3 ovarian = test system: SK-OV-3 ovarian
UACC-257 melanoma = test system: UACC-257 melanoma
MCF7 breast = test system: MCF7 breast
SR leukemia = test system: SR leukemia
786-0 renal = test system: 786-0 renal
HS 578T breast = test system: HS 578T breast
COLO 205 colon = test system: COLO 205 colon
UO-31 renal = test system: UO-31 renal
M14 melanoma = test system: M14 melanoma
SNB-75 CNS = test system: SNB-75 CNS
RXF 393 renal = test system: RXF 393 renal
NCI-H460 lung = test system: NCI-H460 lung
SK-MEL-28 melanoma = test system: SK-MEL-28 melanoma
SF-295 CNS = test system: SF-295 CNS
TK-10 renal = test system: TK-10 renal
SK-MEL-5 melanoma = test system: SK-MEL-5 melanoma
A549 NSCLC = test system: A549 NSCLC
CCRF-CEM leukemia = test system: CCRF-CEM leukemia
EKVX NSCLC = test system: EKVX NSCLC
OVCAR-4 ovarian = test system: OVCAR-4 ovarian

In the case of Clc1nc(Cl)c2ncn(CCOCCn3cnc4c(Cl)nc(Cl)nc43)c2n1, the GI50 (HOP-62 NSCLC) is reported as 202 nM, the TGI (HOP-62 NSCLC) is reported as 360 nM and the GI50 (IGROV1 ovarian) is reported as 207 nM. For the same compound, the TGI (IGROV1 ovarian) was 408 nM, the GI50 (UACC-62 melanoma) was 198 nM and the TGI (UACC-62 melanoma) was 412 nM. It also gave a GI50 (KM12 colon) of 236 nM, a TGI (KM12 colon) of 491 nM and a GI50 (DU-145 prostate) of 196 nM. For the same compound, the TGI (DU-145 prostate) was 343 nM, the GI50 (HCT-15 colon) was 185 nM and the TGI (HCT-15 colon) was 365 nM. For the same compound, the GI50 (MOLT-4 leukemia) was 336 nM, the TGI (MOLT-4 leukemia) was > 100000 nM and the GI50 (MDA-MB-435) was 204 nM. The TGI (MDA-MB-435) was 466 nM, the GI50 (NCI-H226 lung) was 1560 nM and the TGI (NCI-H226 lung) was 3200 nM. The GI50 (SF-539 CNS) was 170 nM, the TGI (SF-539 CNS) was 381 nM and the GI50 (SF-268 CNS) was 194 nM. The TGI (SF-268 CNS) was 347 nM, the GI50 (OVCAR-5 ovarian) was 227 nM and the TGI (OVCAR-5 ovarian) was 510 nM. It also gave a GI50 (SW-620 colon) of 212 nM, a TGI (SW-620 colon) of 440 nM and a GI50 (OVCAR-8 ovarian) of 228 nM. The TGI (OVCAR-8 ovarian) was 486 nM, the GI50 (BT-549 breast) was 208 nM and the TGI (BT-549 breast) was 392 nM. The GI50 (HCT-116 colon) was 182 nM, the TGI (HCT-116 colon) was 346 nM and the GI50 (HOP-92 NSCLC) was 200 nM. It also gave a TGI (HOP-92 NSCLC) of 687 nM, a GI50 (SN12C renal) of 214 nM and a TGI (SN12C renal) of 433 nM. It also gave a GI50 (OVCAR-3 ovarian) of 199 nM, a TGI (OVCAR-3 ovarian) of 346 nM and a GI50 (SNB-19 CNS) of 448 nM. The TGI (SNB-19 CNS) was 968 nM, the GI50 (NCI-H522 lung) was 684 nM and the TGI (NCI-H522 lung) was 2220 nM. The GI50 (LOX IMVI melanoma) was 185 nM, the TGI (LOX IMVI melanoma) was 350 nM and the GI50 (NCI/ADR-RES ovarian) was 216 nM. It also gave a TGI (NCI/ADR-RES ovarian) of 424 nM, a GI50 (MDA-MB-231 breast) of 187 nM and a TGI (MDA-MB-231 breast) of 355 nM. The GI50 (NCI-H23 lung) was 204 nM, the TGI (NCI-H23 lung) was 401 nM and the GI50 (MALME-3M melanoma) was 221 nM. The TGI (MALME-3M melanoma) was 464 nM, the GI50 (PC-3 prostate) was 188 nM and the TGI (PC-3 prostate) was 365 nM. For the same compound, the GI50 (ACHN renal) was 328 nM, the TGI (ACHN renal) was 811 nM and the GI50 (U251 CNS) was 174 nM. It also gave a TGI (U251 CNS) of 313 nM, a GI50 (CAKI-1 renal) of 197 nM and a TGI (CAKI-1 renal) of 453 nM. The GI50 (HCC-2998 colon) was 213 nM, the TGI (HCC-2998 colon) was 382 nM and the GI50 (A498 renal) was 1720 nM. The TGI (A498 renal) was 3200 nM, the GI50 (K-562 leukemia) was 361 nM and the TGI (K-562 leukemia) was > 100000 nM. It also gave a GI50 (SK-OV-3 ovarian) of 1440 nM, a TGI (SK-OV-3 ovarian) of 2770 nM and a GI50 (UACC-257 melanoma) of 235 nM. For the same compound, the TGI (UACC-257 melanoma) was 488 nM, the GI50 (MCF7 breast) was 192 nM and the TGI (MCF7 breast) was 455 nM. The GI50 (SR leukemia) was 241 nM, the TGI (SR leukemia) was 54400 nM and the GI50 (786-0 renal) was 325 nM. The TGI (786-0 renal) was 935 nM, the GI50 (HS 578T breast) was 289 nM and the TGI (HS 578T breast) was 693 nM. It also gave a GI50 (COLO 205 colon) of 204 nM, a TGI (COLO 205 colon) of 374 nM and a GI50 (UO-31 renal) of 633 nM. For the same compound, the TGI (UO-31 renal) was 1250 nM, the GI50 (M14 melanoma) was 287 nM and the TGI (M14 melanoma) was 817 nM. For the same compound, the GI50 (SNB-75 CNS) was 181 nM, the TGI (SNB-75 CNS) was 342 nM and the GI50 (RXF 393 renal) was 222 nM. It also gave a TGI (RXF 393 renal) of 474 nM, a GI50 (NCI-H460 lung) of 217 nM and a TGI (NCI-H460 lung) of 463 nM. For the same compound, the GI50 (SK-MEL-28 melanoma) was 199 nM, the TGI (SK-MEL-28 melanoma) was 362 nM and the GI50 (SF-295 CNS) was 1330 nM. It also gave a TGI (SF-295 CNS) of 2830 nM, a GI50 (TK-10 renal) of 772 nM and a TGI (TK-10 renal) of 1710 nM. The GI50 (SK-MEL-5 melanoma) was 370 nM, the TGI (SK-MEL-5 melanoma) was 1380 nM and the GI50 (A549 NSCLC) was 312 nM. The TGI (A549 NSCLC) was 1300 nM, the GI50 (CCRF-CEM leukemia) was 226 nM and the GI50 (EKVX NSCLC) was 1310 nM. The TGI (EKVX NSCLC) was 2770 nM, the GI50 (OVCAR-4 ovarian) was 283 nM and the TGI (OVCAR-4 ovarian) was 707 nM.
